# Read-outs that look alike come from different tables or passages of the source.
# Key:
# [1] = system: Human lung microvascular endothelial cells (HLMEC); assay: MTT cell viability assay in HLMEC; type: cell-based; conditions: 48 h, read-out: IC50, viability of HLMEC
# Method: Human lung microvascular endothelial cells (HLMEC) were acquired from Lonza (Hayward, CA, USA). The cells were seeded in an endothelial cell growth medium (EGM-2 MV) (Lonza, Hayward, CA, USA) at 37°C and 5% CO2. Then, at 5 to 7 passages, the cells were plated in 100 μL/well EGM-2 MV medium in collagen-covered 96-well plates. The cells were grown for 3–5 days to reach the confluent layer. Cell viability was valued by the MTT Cell Growth Assay Kit (Sigma-Aldrich, Steinheim, Germany) using untreated cells as control.
# (§1) An experimental model of HLMEC was applied to study the effects of the endophytic compounds 1–4 on ACE-2 protein expression. Preceding this analysis, the cytotoxic effect of compounds 1–4 was determined on HLMEC using an MTT assay. HLMEC were treated with different dilutions of the test samples (0.39–100 μM) for 48 h. Compounds 1–4 being nontoxic (IC50>100 μM, Table 6).
# [2] = molecular target: ACE-2: SARS-CoV-2 Spike (RBD) (Homo sapiens, UniProt Q9BYF1); assay: ACE-2: Spike RBD (SARS-CoV-2) inhibitor screening colorimetric assay; type: binding, human; SARS-CoV-2; conditions: in vitro colorimetric kit; mean ± SD; read-out: IC50, ACE2 spike RBD (SARS-CoV-2) inhibitory effect
# [3] = molecular target: T1, TNF-α: TNFR2 (Homo sapiens, UniProt P01375); assay: TNFR2: TNF-α [Biotinylated] inhibitor screening assay; type: binding; conditions: in vitro kit, mean ± SD
# T1 construct: purchased BPS bioscience
# Source text: In vitro TNF-α [Biotinylated] inhibition assay. TNFR2: TNF-α [Biotinylated] inhibitor screening assay kit (BPS bioscience, Cornerstone Court W, Ste B San Diego, CA 92121) was used to screen for the in vitro inhibition of TNF-α binding to tumor necrosis factor receptor 2 (TNFR2) following the manufacturer’s protocol.
# [4] = system: ACE-2 protein expression in HLMEC; assay: Western blot of ACE-2 protein expression in HLMEC; type: cell-based, human; conditions: 25 μM, 48 h, western blot vs untreated cells
# Method: HLMEC cells were seeded, cultured, and incubated with compounds 1–4 for 48h. RIPA buffer (Cell Signaling, Danvers, MA) was employed to obtain the entire-cell protein lysates. Bradford method was used to determine the concentration of protein. Western blot assay was done as previously stated using untreated cells as control. Anti-ACE-2 antibody [EPR24705-45] ab272500 (Abcam, Cambridge, UK) was used.
# as §1
# [5] = Solubility observation of the isolated compound; type: physicochemical; conditions: observation on the isolated oil
# Source text: In addition, there were complex multiplet overlapping signals for several hydrogen protons characteristic for different methylene groups laying in the same chemical environment (H- 5’/5’’, H-6’/6’’, H-11’/11’’ and 12’/12’’). […] In addition to two carbonyl carbons, one of which (C-1’/1’’ δC 167.7) is upfield due to its attachment to the aromatic ring while the other is downfield (C-9’/9’’, δC 174.0). The downfield shift of the two-methylene groups 3’/3’’ (δC, 68.2) and 7’/7’’ (δC 66.7) confirm their attachment to O-C = O. Moreover, the structure contained only one methine group at δC 38.7 (CH- 4’/4’’) and two methyl groups CH3-13’/13’’ and 14’/14’’ at δC 10.9 and 14.0, respectively. Furthermore, there were another five CH2 groups at δC 30.4, 23.7, 34.4, 25.0, and 29.1 for C-5’, 6’, 10’,11’, and 12’, respectively. H-H-COSY (Fig 1) established the correlation between the aromatic ring’s protons and that between the side chains’ protons. Additionally, HMBC data (Fig 1) confirmed the substitution of the aromatic ring through the correlation from H-2/5 ([…]) to C-3/4 (δC 130.9) and that between H-3/4 (δC 7.54) and C-2/5 (δC 128.8). The connectivity of the side chain to the aromatic ring at C-1 and C-6 was established through the correlation from H-2/5 (δH 7.72) to C-1`/1” (δC 167.7). […]
# [6] = system: IL-6 mRNA in LPS-stimulated RAW 264.7 macrophages; assay: IL-6 gene expression (qRT-PCR) in LPS-induced RAW 264.7 cells; type: cell-based; conditions: LPS (1 μg/mL)-stimulated RAW 264.7, sub IC50 concentration, relative to LPS control, referenced to Actb
# Method: (§2) Evaluation of pro-inflammatory cytokines (TNF- α and IL-6) using LPS-induced RAW 264.7 cells. RAW 264.7 macrophage cells were procured from the American Type Culture Collection (Manassas, VA, USA) and grown as previously described. In vitro Toxicology Assay Kit, MTT Based (Sigma-Aldrich, Saint Louis, Missouri, USA) was employed to establish cell viability at concentrations (1–250 μM). Treatment of RAW 264.7 cells and determination of the inhibitory effect of the active compounds at sub IC50 values on TNF- α and IL-6 gene expression in RAW264.7 cells were performed as mentioned before using LPs treated cells as control.
# [7] = system: TNF-α mRNA in LPS-stimulated RAW 264.7 macrophages; assay: TNF-α gene expression (qRT-PCR) in LPS-induced RAW 264.7 cells; type: cell-based; conditions: LPS (1 μg/mL)-stimulated RAW 264.7, sub IC50 concentration, relative to LPS control, referenced to Actb
# Method: as §2
# [8] = read-out: IC50, TNF-α: TNFR2 inhibitory effect
# T1 sequence (P01375 77-233 limits assumed): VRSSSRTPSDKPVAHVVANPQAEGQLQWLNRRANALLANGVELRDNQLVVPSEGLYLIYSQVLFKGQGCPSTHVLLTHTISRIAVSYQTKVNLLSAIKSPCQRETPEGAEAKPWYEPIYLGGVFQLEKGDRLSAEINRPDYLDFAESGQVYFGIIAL
# Chain of ACE-2: SARS-CoV-2 Spike (RBD) (Q9BYF1 18-740): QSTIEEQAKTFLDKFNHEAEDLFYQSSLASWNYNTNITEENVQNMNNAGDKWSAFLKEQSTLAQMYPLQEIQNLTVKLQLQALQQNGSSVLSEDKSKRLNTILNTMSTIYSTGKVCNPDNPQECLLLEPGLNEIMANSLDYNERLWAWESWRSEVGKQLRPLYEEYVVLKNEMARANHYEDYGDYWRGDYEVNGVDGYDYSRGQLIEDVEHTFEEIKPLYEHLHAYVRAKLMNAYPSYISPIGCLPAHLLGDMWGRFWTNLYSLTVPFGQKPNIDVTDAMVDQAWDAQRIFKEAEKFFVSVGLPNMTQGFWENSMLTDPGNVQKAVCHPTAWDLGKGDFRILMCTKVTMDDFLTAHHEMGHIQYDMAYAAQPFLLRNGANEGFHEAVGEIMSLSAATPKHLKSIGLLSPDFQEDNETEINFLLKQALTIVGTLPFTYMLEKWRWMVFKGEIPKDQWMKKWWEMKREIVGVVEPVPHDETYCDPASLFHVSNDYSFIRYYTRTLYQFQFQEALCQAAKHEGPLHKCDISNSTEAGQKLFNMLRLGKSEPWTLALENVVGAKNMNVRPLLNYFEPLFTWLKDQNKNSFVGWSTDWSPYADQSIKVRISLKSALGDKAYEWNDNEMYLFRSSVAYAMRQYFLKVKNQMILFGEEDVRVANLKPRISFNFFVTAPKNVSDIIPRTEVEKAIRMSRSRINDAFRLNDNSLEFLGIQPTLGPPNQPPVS
Compound,IC50 [1] [µM],IC50 [2] [µM],"IC50 [3, 8] [µM]",ACE2% inhibition (ACE2 protein expression) [4] [%],solubility in water [5],IL-6 mRNA expression fold change [6],TNF-α mRNA expression fold change [7],"IC50 ([3]; IC50, TNF-α: TNFR2 inhibitory effect) [µM]"
"CC1CCC2C(C1)c1ccccc1C1CCCCC(C)N12 (centres unmarked) [Compound 1, altenuline]",> 100,15.5 ± 0.45,8.7 ± 0.34,49.65 ± 3.06,–,–,–,–
"CCCCC(=O)OCCCC(C)COC(=O)c1ccccc1C(=O)OCC(C)CCCOC(=O)CCCC (centres unmarked) [Compound 2, phthalic acid bis (7’/7’’ pentyloxy) isohexyl ester]",> 100,10.4 ± 0.25,5.4 ± 0.33,70.51± 4.80,insoluble in water,0.30 ± 0.02,0.45 ± 0.07,–
"COc1cc(O)c2c(=O)oc3c(c2c1)C(C)CC3=O (centres unmarked) [Compound 3, 1-deoxyrubralactone]",> 100,12.5 ± 0.46,–,29.91 ± 4.26,–,–,–,–
"COc1cc(O)c2c(=O)oc3cc(O)cc(C)c3c2c1 [Compound 4, alternariol-5-O-methyl ether]",> 100,11.7 ± 0.34,–,50.85 ± 4.34,–,0.14 ± 0.01,0.28 ± 0.02,4.97 ± 0.28
